According to patent publication US7491794B2, “Macrocyclic compounds as inhibitors of viral replication” (Intermune, Inc., priority 2003, dated 2009):

The compounds below were run against T1, NS3-NS4A protease (Hepatitis C virus genotype 1a, UniProt P27958) (assay: NS3-NS4A protease assay (NS3 inhibition assay, RETS1 substrate), Section B). Details: not given.
T1 construct: Recombinant E. coli or Baculovirus full-length NS3 was diluted to 3.33 μM with assay buffer; made in house; host or cells: E. coli or baculovirus (BV) system
T1 sequence (P27958 1027-1657): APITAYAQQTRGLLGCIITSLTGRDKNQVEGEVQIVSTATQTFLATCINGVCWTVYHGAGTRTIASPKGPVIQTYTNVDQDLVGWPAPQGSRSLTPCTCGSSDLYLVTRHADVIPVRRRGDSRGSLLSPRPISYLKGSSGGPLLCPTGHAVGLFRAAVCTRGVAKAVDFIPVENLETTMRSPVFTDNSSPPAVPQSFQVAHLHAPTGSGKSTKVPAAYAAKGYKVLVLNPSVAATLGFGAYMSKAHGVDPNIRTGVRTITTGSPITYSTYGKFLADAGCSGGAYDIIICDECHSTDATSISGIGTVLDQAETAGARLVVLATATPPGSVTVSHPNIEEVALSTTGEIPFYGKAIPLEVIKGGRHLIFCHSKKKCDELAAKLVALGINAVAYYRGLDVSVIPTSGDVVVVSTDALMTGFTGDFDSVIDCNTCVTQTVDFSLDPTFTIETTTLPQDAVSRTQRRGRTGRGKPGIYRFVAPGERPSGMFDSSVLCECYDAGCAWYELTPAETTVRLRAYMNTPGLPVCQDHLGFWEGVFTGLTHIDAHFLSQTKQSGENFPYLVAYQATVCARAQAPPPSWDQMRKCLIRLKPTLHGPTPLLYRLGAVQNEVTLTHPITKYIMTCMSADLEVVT
Assay type: biochemical
Method: NS3 complex formation with NS4A-2
Recombinant E. coli or Baculovirus full-length NS3 was diluted to 3.33 μM with assay buffer and the material transferred to an eppendorf tube and place in water bath in 4° C. refrigerator. The appropriate amount of NS4A-2 to 8.3 mM in assay buffer was added to equal the volume of NS3 in step 2.1.1 (conversion factor −3.8 mg/272 μL assay buffer). The material was transferred to an eppendorf tube and placed in a water bath in a 4° C. refrigerator.
After equilibration to 4° C., equal volumes of NS3 and NS4A-2 solutions were combined in an eppendorf tube, mixed gently with a manual pipettor, and the mixture incubated for 15 minutes in the 4° C. water bath. Final concentrations in the mixture were 1.67 μM NS3, 4.15 mM NS4A-2 (2485-fold molar excess NS4A-2).
After 15 minutes at 4° C., the NS3/NS4A-2 eppendorf tube was removed and placed in a room temperature water bath for 10 minutes. NS3/NS4A-2 was aliquoted at appropriate volumes and store at −80° C. (E. coli NS3 run at 2 nM in assay, aliquot at 25 μL. BV NS3 run at 3 nM in assay, aliquot at 30 μL.
Step 2.2.5. Sample compounds were dissolved to 10 mM in DMSO then diluted to 2.5 mM (1:4) in DMSO.
Step 2.2.6. The E. coli NS3/NS4A-2 was diluted to 4 nM NS3 (1:417.5 of 1.67 μM stock−18 μL 1.67 μM stock+7497 μL assay buffer).
The BV NS3/NS4A-2 was diluted to 6 nM NS3 (1:278.3 of 1.67 μM stock−24 μL 1.67 μM stock+6655 μL assay buffer).
Step 2.2.7. Using the manual multichannel pipettor, and being careful not to introduce bubbles into the plate, 50 μL assay buffer was added to wells A01-H01 of a black Costar 96-well polypropylene storage plate.
Step 2.2.8. Using the manual multichannel pipettor, and being careful not to introduce bubbles into the plate, 50 μL of diluted NS3/NS4A-2 from step 2.2.6 was added to wells A02-H12 of plate in step 2.2.7.
Step 2.2.9. Using the manual multichannel pipettor, and being careful not to introduce bubbles into the plate, 25 μL of the wells in drug dilution plate in step 2.2.5 were transferred to corresponding wells in assay plate in step 2.2.8. The tips on multichannel pipettor were changed for each row of compounds transferred.
Step 2.2.10. Using the manual multichannel pipettor, and being careful not to introduce bubbles into the plate, the wells from the assay plate in step 2.2.9 were mixed by aspirating and dispensing 35 μL of the 75 μL in each well five times. The tips on multichannel pipettor were changed for each row of wells mixed.
Step 2.2.11. The plate was covered with a polystyrene plate lid, and the plate from step 2.2.10 containing NS3 protease and sample compounds was pre-incubated 10 minutes at room temperature.
While the plate from step 2.2.11 was pre-incubating, the RETS1 substrate was diluted in a 15 mL polypropylene centrifuge tube. The RETS1 substrate was diluted to 8 μM (1:80.75 of 646 μM stock−65 μL 646 μM stock+5184 μL assay buffer).
After the plate in step 2.2.11 was done pre-incubating, and using the manual multichannel, 25 μL of substrate was added to all wells on the plate. The contents of the wells were quickly mixed, as in step 2.2.10, but mixing 65 μL of the 100 μL in the wells.
The plate was read in kinetic mode on the Molecular Devices SpectraMax Gemini XS plate reader. Reader settings: Read time: 30 minutes, Interval: 36 seconds, Reads: 51, Excitation λ: 335 nm, Emission λ: 495 nm, cutoff: 475 nm, Automix: off, Calibrate: once, PMT: high, Reads/well: 6, Vmax pts: 21 or 28/51 depending on length of linearity of reaction.
IC50s were determined using a four parameter curve fit equation, and converted to Ki's using the following Km's:
where Ki=IC50/(1+[S]/Km))

Compound	IC50 [µM]
CC(C)[C@@H](NC(=O)OC(C)(C)C)C(=O)N[C@H]1CCCCC/C=C\[C@@H]2C[C@@]2(C(=O)O)NC(=O)[C@@H]2C[C@@H](OC(=O)N3CCc4ccccc4C3)CN2C1=O [AR00298989, (1S,4R,6S,14S,18R)-14-(2-tert-Butoxycarbonylamino-3-methyl-butyrylamino)-18-(3,4-dihydro-1H-isoquinoline-2-carbonyloxy)-2,15-dioxo-3,16-diaza-tricyclo[14.3.0.0^4,6]nonadec-7-ene-4-carboxylic acid]	< 10
CC(C)[C@@H](N)C(=O)N[C@H]1CCCCC/C=C\[C@@H]2C[C@@]2(C(=O)O)NC(=O)[C@@H]2C[C@@H](OC(=O)N3CCc4ccccc4C3)CN2C1=O [AR00298990, (1S,4R,6S,14S,18R)-14-(2-Amino-3-methyl-butyrylamino)-18-(3,4-dihydro-1H-isoquinoline-2-carbonyloxy)-2,15-dioxo-3,16-diaza-tricyclo[14.3.0.0^4,6]nonadec-7-ene-4-carboxylic acid]	< 10

Same assay, conditions: read-out: NS3-NS4A IC50

Compound	IC50 [µM]
CC(C)(C)OC(=O)N[C@H]1CCCCC/C=C\[C@H]2C[C@]2(C(=O)O)NC(=O)[C@@H]2C[C@@H](OC(=O)N3CCc4ccccc4C3)CN2C1=O [AR00220122, (1S,4S,6R,14S,18R)-14-tert-Butoxycarbonylamino-18-(3,4-dihydro-1H-isoquinoline-2-carbonyloxy)-2,15-dioxo-3,16-diaza-tricyclo[14.3.0.0^4,6]nonadec-7-ene-4-carboxylic acid]	< 50
COc1cc2c(cc1OC)CN(C(=O)O[C@@H]1C[C@H]3C(=O)N[C@]4(C(=O)O)C[C@H]4/C=C\CCCCC[C@H](NC(=O)OC(C)(C)C)C(=O)N3C1)CC2 [AR00226824, (1S,4R,6S,14S,18R)-14-tert-Butoxycarbonylamino-18-(6,7-dimethoxy-3,4-dihydro-1H-isoquinoline-2-carbonyloxy)-2,15-dioxo-3,16-diaza-tricyclo[14.3.0.0^4,6]nonadec-7-ene-4-carboxylic acid]	< 10
CC(C)(C)OC(=O)N[C@H]1CCCCC/C=C\[C@@H]2C[C@@]2(C(=O)O)NC(=O)[C@@H]2C[C@@H](OC(=O)N3CCc4c([nH]c5ccccc45)C3)CN2C1=O [AR00226825, (1S,4R,6S,14S,18R)-14-tert-Butoxycarbonylamino-2,15-dioxo-18-(1,3,4,9-tetrahydro-b-carboline-2-carbonyloxy)-3,16-diaza-tricyclo[14.3.0.0^4,6]nonadec-7-ene-4-carboxylic acid]	< 10
O=C(N[C@H]1CCCCC/C=C\[C@@H]2C[C@@]2(C(=O)O)NC(=O)[C@@H]2C[C@@H](OC(=O)N3CCc4ccccc4C3)CN2C1=O)OC1CCCC1 [AR00247310, (1S,4R,6S,14S,18R)-14-Cyclopentyloxycarbonylamino-18-(3,4-dihydro-1H-isoquinoline-2-carbonyloxy)-2,15-dioxo-3,16-diaza-tricyclo[14.3.0.0^4,6]nonadec-7-ene-4-carboxylic acid]	< 1
CC(C)(C)C(=O)N[C@H]1CCCCC/C=C\[C@@H]2C[C@@]2(C(=O)O)NC(=O)[C@@H]2C[C@@H](OC(=O)N3CCc4ccccc4C3)CN2C1=O [AR00248687, (1S,4R,6S,14S,18R)-18-(3,4-Dihydro-1H-isoquinoline-2-carbonyloxy)-14-(2,2-dimethyl-propionylamino)-2,15-dioxo-3,16-diaza-tricyclo[14.3.0.0^4,6]nonadec-7-ene-4-carboxylic acid]	< 1
CC(C)C(=O)N[C@H]1CCCCC/C=C\[C@@H]2C[C@@]2(C(=O)O)NC(=O)[C@@H]2C[C@@H](OC(=O)N3CCc4ccccc4C3)CN2C1=O [AR00248688, (1S,4R,6S,14S,18R)-18-(3,4-Dihydro-1H-isoquinoline-2-carbonyloxy)-14-isobutyrylamino-2,15-dioxo-3,16-diaza-tricyclo[14.3.0.0^4,6]nonadec-7-ene-4-carboxylic acid]	< 10
O=C(N[C@H]1CCCCC/C=C\[C@@H]2C[C@@]2(C(=O)O)NC(=O)[C@@H]2C[C@@H](OC(=O)N3CCc4ccccc4C3)CN2C1=O)C1CCCC1 [AR00248689, (1S,4R,6S,14S,18R)-14-(Cyclopentanecarbonyl-amino)-18-(3,4-dihydro-1H-isoquinoline-2-carbonyloxy)-2,15-dioxo-3,16-diaza-tricyclo[14.3.0.0^4,6]nonadec-7-ene-4-carboxylic acid]	< 1
CC(C)(C)OC(=O)N[C@H]1CCCCC/C=C\[C@@H]2C[C@@]2(C(=O)O)NC(=O)[C@@H]2C[C@@H](NC(=O)N3CCc4ccccc4C3)CN2C1=O [AR00287262, (1S,4R,6S,14S,18R)-14-tert-butoxycarbonylamino-18-[(3,4-dihydro-1H-isoquinoline-2-carbonyl)-amino]-2,15-dioxo-3,16-diaza-tricyclo[14.3.0.0^4,6]nonadec-7-ene-4-carboxylic acid]	< 10
CC(C)(C)OC(=O)N[C@H]1CCCCC/C=C\[C@@H]2C[C@@]2(C(=O)O)NC(=O)[C@@H]2C[C@@H](OC(=O)N3CCc4cccc(C(F)(F)F)c4C3)CN2C1=O [AR00294382, (1S,4R,6S,14S,18R)-14-tert-Butoxycarbonylamino-2,15-dioxo-18-(8-trifluoromethyl-3,4-dihydro-1H-isoquinoline-2-carbonyloxy)-3,16-diaza-tricyclo[14.3.0.0^4,6]nonadec-7-ene-4-carboxylic acid]	< 1
CC(C)(C)OC(=O)N[C@H]1CCCCC/C=C\[C@@H]2C[C@@]2(C(=O)O)NC(=O)[C@@H]2C[C@@H](OC(=O)N3CCc4cc(C(F)(F)F)ccc4C3)CN2C1=O [AR00294383, (1S,4R,6S,14S,18R)-14-tert-Butoxycarbonylamino-2,15-dioxo-18-(6-trifluoromethyl-3,4-dihydro-1H-isoquinoline-2-carbonyloxy)-3,16-diaza-tricyclo[14.3.0.0^4,6]nonadec-7-ene-4-carboxylic acid]	< 10
CC(C)(C)OC(=O)N[C@H]1CCCCC/C=C\[C@@H]2C[C@@]2(C(=O)O)NC(=O)[C@@H]2C[C@@H](OC(=O)N3CCc4ccccc4C3CN3CCCCC3)CN2C1=O (stereo partly drawn) [AR00301383, (1S,4R,6S,14S,18R)-14-tert-Butoxycarbonylamino-2,15-dioxo-18-(1-piperidin-1-ylmethyl-3,4-dihydro-1H-isoquinoline-2-carbonyloxy)-3,16-diaza-tricyclo[14.3.0.0^4,6]nonadec-7-ene-4-carboxylic acid]	< 10
CC(C)(C)OC(=O)N[C@H]1CCCCC/C=C\[C@@H]2C[C@@]2(C(=O)O)NC(=O)[C@@H]2C[C@@H](OC(=O)N3CCc4ccc(Cl)cc4C3)CN2C1=O [AR00304062, (1S,4R,6S,14S,18R)-14-tert-Butoxycarbonylamino-18-(7-chloro-3,4-dihydro-1H-isoquinoline-2-carbonyloxy)-2,15-dioxo-3,16-diaza-tricyclo[14.3.0.0^4,6]nonadec-7-ene-4-carboxylic acid]	< 10
CC(C)(C)OC(=O)N[C@H]1CCCCC/C=C\[C@@H]2C[C@@]2(C(=O)O)NC(=O)[C@@H]2C[C@@H](OC(=O)N3CCc4nc(N)sc4C3)CN2C1=O [AR00304154, (1S,4R,6S,14S,18R)-18-(2-Amino-6,7-dihydro-4H-thiazolo[5,4-c]pyridine-5-carbonyloxy)-14-tert-butoxycarbonylamino-2,15-dioxo-3,16-diaza-tricyclo[14.3.0.0^4,6]nonadec-7-ene-4-carboxylic acid]	< 10
